According to patent publication US8710067B2, “Method for the treatment, alleviation of symptoms of, relieving, improving and preventing a cognitive disease, disorder or condition” (Alcobra Ltd., priority 2009, dated 2014):

Key:
[1] = Pharmacokinetics after single administration to fasted healthy subjects (Example 1); type: in vivo, human
From the text: The above mentioned formulations were given to fasted healthy patients. Blood samples were collected following a predetermined time schedule in order to characterize formulation adsorption and elimination.

[2] = test system: ADHD/ADD adult patients; assay: TOVA (Test of Variables of Attention) in ADHD/ADD adult patients (Example 2); type: in vivo, human; conditions: n = 12; Bonferroni adjustment; NS, p 0.258
Experimental: (§1) 38 ADHD/ADD adult patients (age 18-45) of ADHD unit of the Geha Mental Health Center (Israel) were tested.
(§2) A total of four tablets were administered to each patient: • Two tablets of immediate release (IR) formulation (defined in Table 4) and • Two tablets of slow release (SR) formulation (defined in Table 5).
(§3) Tests at inclusion included selection of patients, and included clinical diagnosis by DSM IV, psychiatric examination, WURS & ASRS questionnaires, TOVA (Test of Variables of Attention) score, Wechsler (Wechsler Adult Intelligence Scale) subtests, BDI (Beck Depression Inventory) and STAI (State-Trait Anxiety Inventory) questionnaire.
The TOVA is a computerized test developed to assess attention and impulsivity in normal and clinical populations. Main outcome measures for the TOVA are the Omission Standard Score (SS; inattention measure) the Commission Standard Score (SS; measure of impulse control), the Response Time (RT) SS, the Variability in RT SS, and overall ADHD SS (a composite score of the previous submeasures).
(§4) The Primary outcome measure was the ADHD Score, TOVA Omission, TOVA Commission, TOVA RT and TOVA Variability analysed as Standard Score in % compared to the patient's prior performance of the TOVA test at baseline. Secondary outcome measures were Subtests from Weschler: Digit span, Symbol Search, Digit symbol.

[3] = test system: ADHD/ADD adult patients; assay: Wechsler subtests in ADHD/ADD adult patients (Example 2); type: in vivo, human; conditions: single dose 1400 mg, 90 minutes after dosing
Experimental: as §1, §2, §3, §4

[4] = cited from earlier work
[5] = test system: animals with alcohol intake; conditions: animal studies, cited from earlier work
[6] = test system: frontoparietal cortex of guinea pigs; conditions: cited from earlier work
[7] = test system: abstinent chronic alcoholic; conditions: abstinent chronic alcoholics, after 1-2 months of abstinence; control group given vitamin B6; cited from earlier work
[8] = test system: humans; conditions: long term data; cited from earlier work

Cc1ncc(CO)c(CO)c1O.O=C1CC[C@@H](C(=O)O)N1 [Metadoxine, pyridoxine L-2-pyrrolidone-5-carboxylate]
time to maximal concentration ([1]; FIG. 1, immediate/slow release formulations, fasted healthy subjects): about 0.5 hour
dose-linearity for Cmax and AUC ([1]; single administration, dose range 700 to 2100 mg, healthy Caucasian subjects): dose-linearity was demonstrated
ADHD Score, Mean Difference, comparison with (3) Metadoxine 1400 mg, other group not given [2]: +3.687 NS
cognitive functions in the ADHD adult population (Wechsler subtests overall) [3]: confirmed the ability of Metadoxine to improve cognitive functions
mean half life in human serum ([4]; Lu Yuan et al.): about 0.8 hour
half life in human serum ([4]; oral and intravenous administration, no appreciable differences): 40 to 60 min
bioavailability ([4]; oral): 60-80%
increased production of fatty acid esters in the liver ([5]; during chronic alcohol intake): inhibited
oxidative stress and glutathione depletion in hepatic tissues [5]: reduced oxidative stress and prevented glutathione depletion
level of GABA and acetylcholine [6]: increased
recovery of short-term memory [7]: helps recovery of short-term memory
safety for use by humans [8]: safe for use by humans
